Test results from patent US10195255B2, “GLP-1 derivatives and uses thereof” (Novo Nordisk A/S, priority 2013, dated 2019).
Where a SMILES comes first, the peptide text is derived from it. [ ]: non-standard residue; d: D form. The star is where a group is joined. X3 = O=C(O)CCCCCCCCCCCCCCCCCCC(=O)NCC1CCC(C(=O)N[C@@H](CCC(=O)NCCOCCOCC(=O)NCCOCCOCC(=O)NCCCC[C@H](NC(=O)COCCOCCNC(=O)COCCOCCNC(=O)CC[C@H](NC(=O)C2CCC(CNC(=O)CCCCCCCCCCCCCCCCCCC(=O)O)CC2)C(=O)O)C(=O)*)C(=O)O)CC1; X2 = O=C(O)CCCCCCCCCCCCCCCCCCC(=O)N1CCC(C(=O)N[C@@H](CCC(=O)NCCOCCOCC(=O)NCCOCCOCC(=O)NCCCC[C@H](NC(=O)COCCOCCNC(=O)COCCOCCNC(=O)CC[C@H](NC(=O)C2CCN(C(=O)CCCCCCCCCCCCCCCCCCC(=O)O)CC2)C(=O)O)C(=O)*)C(=O)O)CC1; X1 = O=C(O)CCCCCCCCCCCCCCCCCCC(=O)N[C@@H](CCC(=O)NCCOCCOCC(=O)NCCOCCOCC(=O)NCCCC[C@H](NC(=O)COCCOCCNC(=O)COCCOCCNC(=O)CC[C@H](NC(=O)CCCCCCCCCCCCCCCCCCC(=O)O)C(=O)O)C(=O)*)C(=O)O; Aib = CC(C)(N)C(=O)O

Key:
[1] = Pharmacokinetic study in minipigs (i.v.)
Experimental: (§1) This is done in a pharmacokinetic (PK) study, where the terminal half-life of the derivative in question is determined. By terminal half-life is meant the time it takes to halve a certain plasma concentration in the terminal elimination phase.
(§2) Male Göttingen minipigs were obtained from Ellegaard Göttingen Minipigs (Dalmose, Denmark) approximately 7-14 months of age and weighing approximately 16-35 kg were used in the studies. The minipigs were housed either individually (pigs with permanent catheters) or in a group and fed restrictedly once or twice daily with SDS minipig diet (Special Diets Services, Essex, UK).
(§3) After at least 2 weeks of acclimatisation two permanent central venous catheters were implanted in vena cava caudalis or cranialis in each animal. The animals were allowed 1 week recovery after the surgery, and were then used for repeated pharmacokinetic studies with a suitable wash-out period between successive GLP-1 derivative dosings.
(§4) Blood samples (for example 0.8 ml) were collected in EDTA buffer (8 mM) and then centrifuged at 4° C. and 1942 G for 10 minutes.
(§5) Plasma was pipetted into Micronic tubes on dry ice, and kept at −20° C. until analysed for plasma concentration of the respective GLP-1 compound using LOCI. Individual plasma concentration-time profiles were analyzed by a non-compartmental pharmacokinetic method in Phoenix v. 6.2 (Pharsight Inc., Mountain View, Calif., USA), or other relevant software for PK analysis, and the resulting terminal half-lives (harmonic mean) determined.

[2] = in vivo; conditions: male, Göttingen, minipig, iv
Experimental: as §1, §2, §3, §4, §5

half-life [2]	SMILES	further results
	CC[C@H](C)[C@H](NC(=O)[C@H](Cc1ccccc1)NC(=O)[C@H](CCC(=O)O)NC(=O)[C@H](CCCNC(=N)N)NC(=O)[C@H](C)NC(=O)[C@H](C)NC(=O)[C@H](CCC(N)=O)NC(=O)[C@H](CCC(=O)O)NC(=O)[C@H](CCC(=O)O)NC(=O)[C@H](CC(C)C)NC(=O)[C@H](Cc1ccc(O)cc1)NC(=O)[C@H](CO)NC(=O)[C@H](CO)NC(=O)[C@@H](NC(=O)[C@H](CC(=O)O)NC(=O)[C@H](CO)NC(=O)[C@@H](NC(=O)[C@H](Cc1ccccc1)NC(=O)[C@@H](NC(=O)CNC(=O)[C@H](CCC(=O)O)NC(=O)C(C)(C)NC(=O)[C@@H](N)Cc1c[nH]cn1)[C@@H](C)O)[C@@H](C)O)C(C)C)C(=O)N[C@@H](C)C(=O)N[C@@H](Cc1c[nH]c2ccccc12)C(=O)N[C@@H](CC(C)C)C(=O)N[C@H](C(=O)N[C@@H](CCCNC(=N)N)C(=O)NCC(=O)N[C@@H](CCCNC(=N)N)C(=O)NCC(=O)NCC(=O)N[C@@H](CO)C(=O)N[C@@H](CCCCNC(=O)[C@H](CCCCNC(=O)COCCOCCNC(=O)COCCOCCNC(=O)CC[C@H](NC(=O)C1CCC(CNC(=O)CCCCCCCCCCCCCCCCCCC(=O)O)CC1)C(=O)O)NC(=O)COCCOCCNC(=O)COCCOCCNC(=O)CC[C@H](NC(=O)C1CCC(CNC(=O)CCCCCCCCCCCCCCCCCCC(=O)O)CC1)C(=O)O)C(=O)O)C(C)C (stereo partly drawn) [Example 3, [Aib8,Glu22,Arg26,Arg34]-GLP-1-(7-37)-peptidyl-Gly-Ser-N{Epsilon}[(2S)-2,6-bis[[2-[2-[2-[[2-[2-[2-[[(4S)-4-carboxy-4-[[4-[(19-carboxynonadecanoylamino)methyl]cyclohexanecarbonyl]amino]butanoyl]amino]ethoxy]ethoxy]acetyl]amino]ethoxy]ethoxy]acetyl]amino]hexanoyl]Lys] (H-H[Aib]EGTFTSDVSSYLEEQAAREFIAWLVRGRGGSK(X3)-OH)	Terminal half-live ([1]; minipigs, i.v., 2 nmol/kg, harmonic mean): 122 h
	CC[C@H](C)[C@H](NC(=O)[C@H](Cc1ccccc1)NC(=O)[C@H](CCC(=O)O)NC(=O)[C@H](CCCNC(=N)N)NC(=O)[C@H](C)NC(=O)[C@H](C)NC(=O)[C@H](CCC(N)=O)NC(=O)[C@H](CCC(=O)O)NC(=O)[C@H](CCC(=O)O)NC(=O)[C@H](CC(C)C)NC(=O)[C@H](Cc1ccc(O)cc1)NC(=O)[C@H](CO)NC(=O)[C@H](CO)NC(=O)[C@@H](NC(=O)[C@H](CC(=O)O)NC(=O)[C@H](CO)NC(=O)[C@@H](NC(=O)[C@H](Cc1ccccc1)NC(=O)[C@@H](NC(=O)CNC(=O)[C@H](CCC(=O)O)NC(=O)C(C)(C)NC(=O)[C@@H](N)Cc1c[nH]cn1)[C@@H](C)O)[C@@H](C)O)C(C)C)C(=O)N[C@@H](C)C(=O)N[C@@H](Cc1c[nH]c2ccccc12)C(=O)N[C@@H](CC(C)C)C(=O)N[C@H](C(=O)N[C@@H](CCCNC(=N)N)C(=O)NCC(=O)N[C@@H](CCCNC(=N)N)C(=O)NCC(=O)N[C@@H](CCCCNC(=O)[C@H](CCCCNC(=O)COCCOCCNC(=O)COCCOCCNC(=O)CC[C@H](NC(=O)C1CCN(C(=O)CCCCCCCCCCCCCCCCCCC(=O)O)CC1)C(=O)O)NC(=O)COCCOCCNC(=O)COCCOCCNC(=O)CC[C@H](NC(=O)C1CCN(C(=O)CCCCCCCCCCCCCCCCCCC(=O)O)CC1)C(=O)O)C(=O)O)C(C)C [Example 18, N{Alpha}([Aib8,Glu22,Arg26,Arg34]-GLP-1-(7-37)-peptidyl)-N{Epsilon}[(2S)-2,6-bis[[2-[2-[2-[[2-[2-[2-[[(4S)-4-carboxy-4-[[1-(19-carboxynonadecanoyl)piperidine-4-carbonyl]amino]butanoyl]amino]ethoxy]ethoxy]acetyl]amino]ethoxy]ethoxy]acetyl]amino]hexanoyl]Lys] (H-H[Aib]EGTFTSDVSSYLEEQAAREFIAWLVRGRGK(X2)-OH)	half-life ([1]; male, Göttingen, minipig, plasma, iv, 15 nmol/kg): 140 h
128 h	CC[C@H](C)[C@H](NC(=O)[C@H](Cc1ccccc1)NC(=O)[C@H](CCC(=O)O)NC(=O)[C@H](CCCNC(=N)N)NC(=O)[C@H](C)NC(=O)[C@H](C)NC(=O)[C@H](CCC(N)=O)NC(=O)[C@H](CCC(=O)O)NC(=O)[C@H](CCC(=O)O)NC(=O)[C@H](CC(C)C)NC(=O)[C@H](Cc1ccc(O)cc1)NC(=O)[C@H](CO)NC(=O)[C@H](CO)NC(=O)[C@@H](NC(=O)[C@H](CC(=O)O)NC(=O)[C@H](CO)NC(=O)[C@@H](NC(=O)[C@H](Cc1ccccc1)NC(=O)[C@@H](NC(=O)CNC(=O)[C@H](CCC(=O)O)NC(=O)C(C)(C)NC(=O)[C@@H](N)Cc1c[nH]cn1)[C@@H](C)O)[C@@H](C)O)C(C)C)C(=O)N[C@@H](C)C(=O)N[C@@H](Cc1c[nH]c2ccccc12)C(=O)N[C@@H](CC(C)C)C(=O)N[C@H](C(=O)N[C@@H](CCCNC(=N)N)C(=O)NCC(=O)N[C@@H](CCCNC(=N)N)C(=O)N[C@@H](CCCCNC(=O)[C@H](CCCCNC(=O)COCCOCCNC(=O)COCCOCCNC(=O)CC[C@H](NC(=O)CCCCCCCCCCCCCCCCCCC(=O)O)C(=O)O)NC(=O)COCCOCCNC(=O)COCCOCCNC(=O)CC[C@H](NC(=O)CCCCCCCCCCCCCCCCCCC(=O)O)C(=O)O)C(=O)O)C(C)C [Example 6, N{Epsilon-37}-[(2S)-2,6-bis[[2-[2-[2-[[2-[2-[2-[[(4S)-4-carboxy-4-(19-carboxynonadecanoylamino)butanoyl]amino]ethoxy]ethoxy]acetyl]amino]ethoxy]ethoxy]acetyl]amino]hexanoyl]-[Aib8,Glu22,Arg26,Arg34,Lys37]-GLP-1-(7-37)-peptide]	
131 h	CC[C@H](C)[C@H](NC(=O)[C@H](Cc1ccccc1)NC(=O)[C@H](CCC(=O)O)NC(=O)[C@H](CCCNC(=N)N)NC(=O)[C@H](C)NC(=O)[C@H](C)NC(=O)[C@H](CCC(N)=O)NC(=O)[C@H](CCC(=O)O)NC(=O)[C@H](CCC(=O)O)NC(=O)[C@H](CC(C)C)NC(=O)[C@H](Cc1ccc(O)cc1)NC(=O)[C@H](CO)NC(=O)[C@H](CO)NC(=O)[C@@H](NC(=O)[C@H](CC(=O)O)NC(=O)[C@H](CO)NC(=O)[C@@H](NC(=O)[C@H](Cc1ccccc1)NC(=O)[C@@H](NC(=O)CNC(=O)[C@H](CCC(=O)O)NC(=O)C(C)(C)NC(=O)[C@@H](N)Cc1c[nH]cn1)[C@@H](C)O)[C@@H](C)O)C(C)C)C(=O)N[C@@H](C)C(=O)N[C@@H](Cc1c[nH]c2ccccc12)C(=O)N[C@@H](CC(C)C)C(=O)N[C@H](C(=O)N[C@@H](CCCNC(=N)N)C(=O)NCC(=O)N[C@@H](CCCNC(=N)N)C(=O)NCC(=O)N[C@@H](CCCCNC(=O)[C@H](CCCCNC(=O)COCCOCCNC(=O)COCCOCCNC(=O)CC[C@H](NC(=O)CCCCCCCCCCCCCCCCCCC(=O)O)C(=O)O)NC(=O)COCCOCCNC(=O)COCCOCCNC(=O)CC[C@H](NC(=O)CCCCCCCCCCCCCCCCCCC(=O)O)C(=O)O)C(=O)O)C(C)C [Example 9, N{Alpha}([Aib8,Glu22,Arg26,Arg34]-GLP-1-(7-37)-peptidyl)-N{Epsilon}[(2S)-2,6-bis[[2-[2-[2-[[2-[2-[2-[[(4S)-4-carboxy-4-(19-carboxynonadecanoylamino)butanoyl]amino]ethoxy]ethoxy]acetyl]amino]ethoxy]ethoxy]acetyl]amino]hexanoyl]Lys] (H-H[Aib]EGTFTSDVSSYLEEQAAREFIAWLVRGRGK(X1)-OH; N-terminus and C-terminus assumed)	
